Columns and labels:
peanut allergy = assay: Prevention of human peanut allergy in infants; format: in vivo; conditions: high-level colonization vs control group with low-level colonization
Description: Infants 2-4 months of age at risk of allergy are recruited and their stool is screened for their Bifidobacterium infantis status (Bifidobacterium infantis abundance). The infants are divided into 2 groups: high Bifidobacterium (desirable infant gut microbiome) and low Bifidobacterium (dysbiotic infant gut microbiome). Low Bifidobacterium stool samples are determined to be low Bifidobacterium or dysbiotic, if their levels of Bifidobacterium are less than a threshold of 10^8 CFU/ug DNA and/or Bifidobacteriaceae family is less than 35% of the total infant gut microbiome as measured by a next generation sequencing, such as 16S RNA sequence. Conversely, a high Bifidobacterium sample or desirable infant gut microbiome has a threshold of 10^8 CFU/ug DNA or greater and/or Bifidobacteriaceae family is greater than 35% of the total infant gut microbiome. Once the infants are screened, the dysbiotic group is randomized into a placebo arm or a supplemented arm receiving activated B. infantis, LNnT and retinol. Infants are fed the supplement or placebo for 16 weeks. At 12 weeks, peanut extract is introduced to the diet for 3 days to infants who are at least 4 months old. Blood samples are taken at 12 weeks, 16 weeks, 20 weeks, 24 weeks, 36 weeks, 40 weeks to analyze TReg cells and IgE. At 9 months, the infants are brought in for a peanut challenge. The incident of allergy between groups is analyzed.

[1] = Safety and tolerability of B. infantis EVC001 supplementation in healthy term nursing infants; format: in vivo, human; conditions: healthy term breastfed infants
Description: This trial was designed to show the effect of probiotic supplementation with Bifidobacterium longum subsp. Infantis (B. infantis EVC001) in healthy, term, nursing infants compared to an unsupplemented group. A dry composition of lactose and activated Bifidobacterium longum subsp. infantis was prepared starting with the cultivation of a purified isolate (Strain EVC001 ATCC Accession No. PTA-125180, Evolve Biosystems Inc., Davis, Calif., isolated from a human infant fecal sample) in the presence of BMO according to International Patent Application No. PCT/US2015/057226. […] This concentrated powder was then diluted by blending with infant formula grade lactose to an activity level of about 30 Billion CFU/g. This composition then was loaded into individual sachets at about 0.625 g/sachet and provided to breast-fed infants starting on or about day 7 of life and then provided on a daily basis for the subsequent 21 days.
This was a 60-day study starting with infants' date of birth as Day 1. […]
Infant fecal samples were collected throughout the 60-day trial. […] Safety and tolerability were determined from maternal reports of infants' feeding, stooling frequency, and consistency (using a modified Amsterdam infant stool scale—watery, soft, formed, hard; Bekkali et al. 2009), as well as GI symptoms and health outcomes. […]

zonulin = assay: Fecal zonulin ELISA; format: in vivo, human; conditions: treatment group
From the text: Fecal zonulin concentrations: Zonulin has been described as the main physiological modulator of intercellular tight junction, and increased levels are indicative of increased gut permeability.

[2] = Immune development in C-section infants; format: in vivo, human; conditions: baseline to three months
From the text: Approximately 25 mother-infant dyads are recruited to provide a cord blood sample and two infant blood samples, one on day 0-4 and another at 3 months old (between 84 and 104). Markers of immune function will be analysed and compared to the development of the gut microbiome.
The study design is described in FIG. 16. The change in levels of immune cells and markers from baseline (Day 0-Day 4) to three months (Day 84-Day 104) will be measured. The correlation between gut microbiota composition and abundance and levels of immune cells and markers may also be measured. The differences between B. infantis and placebo supplementation on levels of immune cells and markers in breast-fed infants.
The differences between B. infantis and placebo supplementation on vaccine response (antibody titers). Blood samples are collected at baseline and month-three postpartum for evaluation of peripheral blood mononuclear cell characterization (including regulatory T cells) and vaccine response.

peanut extract allergy = assay: Reversal of murine peanut allergy; format: in vivo, mouse; conditions: previously sensitized animals, compared to control mice
Description: Germ-free pups are weaned 3 weeks after birth and put on a polysaccharide-free diet. Mice are gavaged with a dysbiotic microbiome of Example 3 at Day 1. Mice receive intragastric gavage of peanut extract on day 1 and day 7 at 5 mg/mouse and then 25 mg/mouse at week 5 with 10 μg of Cholera toxin. Elicitation of reaction is performed at eight to ten weeks using intragastric gavage of 10 mg/mouse food antigen (e.g., peanut extract) with vehicle (PBS). At 10 weeks, mice of the test group are fed B. infantis, while control mice receive vehicle gavage only. All mice have access ad labium to LNnT-infused drinking water for a period of 21 days. The mice are re-challenged with the food antigen via intragastric gavage of 10 mg/mouse peanut extract with vehicle (PBS). Anaphylaxis symptoms are evaluated, and then mice are necropsied. Plasma samples are collected for evaluation of histamine and IgE concentrations. White blood cells are isolated for PBMC characterization and evaluation of regulatory T cell population expansion using flow cytometry specific for CD4, CD25, Foxp3, Helios, Neuropilin, CD8, CD44, CD62L, IFNgamma, IL-17.

Question: With “Bifidobacterium longum subsp. infantis EVC001 [B. infantis EVC001]” as the substance, how does the “Inflammatory responses to the food antigen” value (peanut allergy) read?
Answer: The value was “reduces”.

Question: What about the “Adverse events versus unsupplemented group” value ([1]; 60-day study) of the same substance?
Answer: Its value is “not different between groups”.

Question: And the Tolerability ([1]; at least 1.8×10^10 cfu once daily for 21 days from Day 7)?
Answer: The Tolerability was “well-tolerated”.

Question: What about the Fecal zonulin concentration (zonulin) of the same substance?
Answer: Its Fecal zonulin concentration is “significantly reduced”.

Question: And the Inflammation [2]?
Answer: The Inflammation was “reduced”.

Question: And the “Th17 and IL-17 level” value [2]?
Answer: The value was “decreased”.

Question: And the Tregs [2]?
Answer: Its Tregs is “increased”.

Question: What about the “Inflammatory responses to the food antigen” value (peanut extract allergy) of the same substance?
Answer: The value was “reduces”.

Reference: patent publication US20210308196A1, “COMPOSITIONS AND METHODS TO PROMOTE HOST DEFENSE AND STIMULATE, EXPAND, AND/OR RESET T CELL REPERTOIRES” (EVOLVE BIOSYSTEMS, INC., priority 2018, published 2021)
